EC50 and IC50 data for 5 compounds are collected here from US9593149B2, “Amylin and calcitonin receptor agonist” (Novo Nordisk A/S, priority 2014, dated 2017).

Peptide text beside a SMILES is read from it.

For test [1], the target named is T1, human amylin 3(a) receptor (human calcitonin receptor + RAMP-3), BHK570 cells (Homo sapiens, UniProt O60896+P30988).
T1 construct: host or cells: BHK570
Kind of test: Assay (II)b functional CRE-luciferase assay without albumin, human amylin receptor. The conditions noted are these: Tested without HSA; read-out: hAmylin-R funct. EC50. Type of test: cell-based. The source says:
(§1) Assay(II)b—Human Calcitonin and Amylin Receptor Assay without Albumin
(§2) 1. Luciferase Assay Outline
(§3) Activation of calcitonin and amylin (co-expression of calcitonin receptor and receptor activity modifying proteins (RAMP)) receptors lead to increased intracellular concentrations of cAMP. Consequently, transcription is activated by promoters containing multiple copies of the cAMP response element (CRE). It is thus possible to measure amylin activity by the use of a CRE luciferase reporter gene introduced into BHK cells also expressing calcitonin or amylin receptors.
(§4) 2. Construction of Calcitonin (a)—and Amylin 3(a)—Receptor/CRE-Luc Cell Line.
(§5) A BHK570 cell line was stably transfected with the human calcitonin receptor and a CRE-responsive luciferase reporter gene (Hollex-1 cell line, obtained from ZymoGenetics described in U.S. Pat. No. 5,622,839). The cell line was further transfected with RAMP-3, using standard methods. This turns the calcitonin receptor into an amylin 3(a) receptor. Methotrexate, Neomycin, and Hygromycin are selection markers for luciferase, the calcitonin receptor, and RAMP-3, respectively. To prepare the batches of frozen cells used in the luciferase assay described in the section below, the cells were cultured in growth medium (DMEM with 10% FBS, 1% Pen/Strep and 1 mM Napyruvate). […] Cells at approximately 80-90% confluence were washed with PBS and loosened from the plates with Versene. After centrifugation (2 min, 1300 rpm, in a Centrion Scientific centriuge C2 series with a BRK 5510 rotor head), the cell pellet was dissolved in 10% DMSO, 30% FBS and 60% growth medium and frozen (−80° C.) until utilization.
(§6) The day before the experiment, BHK calcitonin (a) receptor- or amylin 3(a)-receptor/CRE-luc cells were thawed, washed twice, and seeded in 40 μl growth medium on white 384 well culture plates (4.000 cells/well). On the assay day, the cells were washed 3 times in assay media (Dulbecco media W/o phenol red, 500 ml (Gibco, 11880-028); 0.1% ovalbumin; 10 mM Hepes pH 7.4; 1× Glutamin; 1% Pen/Strep). Then, 30 μl/well of sample diluted in assay buffer was added. After 3 hours of incubation at 37° C. and 5% CO2, the reaction was terminated by adding 30 μl/well SteadyLite Plus™. The plates were shaken at 300 rpm for 5 min at RT. Then, the plates were sealed and incubated at room temperature for 30 minutes. Finally, luminescence was tested on a TopCounter (Packard) in SPC (single photon counting) mode.
(§7) Additional Comment Regarding Use of Data Retrieved Via this Method
(§8) For the same reasons, measurements made in Assay IIa should not be compared in Assay IIb.

Test [2] deals with T2, human calcitonin (a) receptor, BHK570 cells (Homo sapiens, UniProt P30988).
T2 construct: host or cells: BHK570
T2 sequence (P30988 25-474): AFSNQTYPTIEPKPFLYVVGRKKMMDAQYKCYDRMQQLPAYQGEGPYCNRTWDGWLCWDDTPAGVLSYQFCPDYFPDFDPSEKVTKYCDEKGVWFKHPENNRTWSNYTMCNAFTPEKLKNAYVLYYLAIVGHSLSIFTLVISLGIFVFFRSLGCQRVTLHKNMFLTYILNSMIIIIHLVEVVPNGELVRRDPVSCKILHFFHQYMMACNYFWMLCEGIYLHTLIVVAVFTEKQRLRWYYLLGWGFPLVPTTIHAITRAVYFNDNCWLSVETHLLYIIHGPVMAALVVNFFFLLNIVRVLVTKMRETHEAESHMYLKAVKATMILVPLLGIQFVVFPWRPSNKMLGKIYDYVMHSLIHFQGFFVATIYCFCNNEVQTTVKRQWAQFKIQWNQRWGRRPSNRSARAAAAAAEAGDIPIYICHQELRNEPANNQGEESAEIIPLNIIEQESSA
Kind of test: Assay (II)b functional CRE-luciferase assay without albumin, human calcitonin receptor. Type of test: cell-based. The following applies: Tested without HSA; read-out: hCTR funct. EC50.
Description: as §1, §2, §3, §4, §5, §6, §7, §8

Test [3] deals with T3, human amylin receptor (human calcitonin receptor + human RAMP3), BHK tk'ts 13 cells (Homo sapiens, UniProt O60896+P30988).
T3 construct: expressed in transfected cells; host or cells: BHK tk'ts 13
T3 sequence (O60896 24-148, one chain of several): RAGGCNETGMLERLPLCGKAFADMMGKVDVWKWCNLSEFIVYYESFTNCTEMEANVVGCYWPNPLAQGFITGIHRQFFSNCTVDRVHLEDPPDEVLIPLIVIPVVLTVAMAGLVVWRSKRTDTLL
The test can be described thus: Assay (Va) binding to the human amylin receptor (whole cell). The conditions noted are these: read-out: hAmylin-R binding IC50. As for the experimental part:
The day before the assay the cells were Seeded into Poly-D-Lysin coated 384W Opaque White, BD BioCoat plates (10000 cells/well) and Incubated overnight at 37° C., 5% CO2, 95% humidity.

T1 sequence (O60896 24-148, one chain of several): as above

Turning to `CC(C)C[C@H](NC(=O)[C@H](C)NC(=O)[C@H](C)NC(=O)[C@@H](NC(=O)[C@H](CO)NC(=O)[C@H](CC(C)C)NC(=O)[C@H](CCC(=O)O)NC(=O)[C@H](CO)NC(=O)[C@H](C)N)[C@@H](C)O)C(=O)NCC(=O)N[C@@H](Cc1c[nH]cn1)C(=O)N[C@@H](CC(C)C)C(=O)N[C@@H](CO)C(=O)N[C@@H](C)C(=O)N[C@@H](CCC(=O)O)C(=O)N[C@@H](CC(C)C)C(=O)N[C@@H](Cc1c[nH]cn1)C(=O)N[C@@H](CCC(=O)O)C(=O)N[C@@H](CC(C)C)C(=O)N[C@@H](C)C(=O)N[C@H](C(=O)N[C@@H](CC(C)C)C(=O)N1CCC[C@H]1C(=O)N[C@@H](CCCNC(=N)N)C(=O)N[C@H](C(=O)N[C@@H](CCC(=O)O)C(=O)N[C@H](C(=O)NCC(=O)N[C@@H](CO)C(=O)NCC(=O)N[C@@H](CO)C(=O)N1CCC[C@H]1C(N)=O)[C@@H](C)O)[C@@H](C)O)[C@@H](C)O` [72bb, H—ASELSTAALGHLSAELHELATLPRTETGSGSP—NH2] (H-ASELSTAALGHLSAELHELATLPRTETGSGSP-NH2), the results for the EC50 in test [1] and in test [2] were 0.014 nM and 0.003 nM, respectively. Moreover, the IC50 in test [3] stood at 5.1 nM.
On the same counts, the results for `CC(C)C[C@H](NC(=O)[C@H](CCC(=O)O)NC(=O)[C@H](Cc1c[nH]cn1)NC(=O)[C@H](CC(C)C)NC(=O)[C@H](CCC(=O)O)NC(=O)[C@H](C)NC(=O)[C@H](CO)NC(=O)[C@H](CC(C)C)NC(=O)[C@H](CCCNC(=N)N)NC(=O)CNC(=O)[C@H](CC(C)C)NC(=O)[C@@H](NC(=O)[C@H](C)NC(=O)[C@@H](NC(=O)[C@H](CO)NC(=O)[C@@H](NC(=O)[C@H](CCC(=O)O)NC(=O)[C@H](CO)NC(=O)[C@H](C)N)C(C)C)[C@@H](C)O)C(C)C)C(=O)N[C@@H](C)C(=O)N[C@H](C(=O)N[C@@H](CC(C)C)C(=O)N1CCC[C@H]1C(=O)N[C@@H](CCCNC(=N)N)C(=O)N[C@H](C(=O)N[C@@H](CCC(=O)O)C(=O)N[C@H](C(=O)NCC(=O)N[C@@H](CO)C(=O)NCC(=O)N[C@@H](CO)C(=O)N1CCC[C@H]1C(N)=O)[C@@H](C)O)[C@@H](C)O)[C@@H](C)O` [86bb, H—ASEVSTAVLGRLSAELHELATLPRTETGSGSP—NH2] (H-ASEVSTAVLGRLSAELHELATLPRTETGSGSP-NH2) are 0.007 nM, 0.002 nM and 0.982 nM.
Regarding `CC(C)C[C@H](NC(=O)[C@H](CCC(=O)O)NC(=O)[C@H](Cc1c[nH]cn1)NC(=O)[C@H](CC(C)C)NC(=O)[C@H](CCC(=O)O)NC(=O)[C@H](C)NC(=O)[C@H](CO)NC(=O)[C@H](CC(C)C)NC(=O)[C@H](CCCNC(=N)N)NC(=O)CNC(=O)[C@H](CC(C)C)NC(=O)[C@@H](NC(=O)[C@H](C)NC(=O)[C@@H](NC(=O)[C@@H](NC(=O)[C@H](CC(C)C)NC(=O)[C@H](CCC(=O)O)NC(=O)[C@H](CO)NC(=O)[C@H](C)N)[C@@H](C)O)[C@@H](C)O)C(C)C)C(=O)N[C@@H](C)C(=O)N[C@H](C(=O)N[C@@H](CC(C)C)C(=O)N1CCC[C@H]1C(=O)N[C@@H](CCCNC(=N)N)C(=O)N[C@H](C(=O)N[C@@H](CCC(=O)O)C(=O)N[C@H](C(=O)NCC(=O)N[C@H](C(=O)NCC(=O)N[C@H](C(=O)N1CCC[C@H]1C(N)=O)[C@@H](C)O)[C@@H](C)O)[C@@H](C)O)[C@@H](C)O)[C@@H](C)O` [95bb, H—ASELTTAVLGRLSAELHELATLPRTETGTGTP—NH2] (H-ASELTTAVLGRLSAELHELATLPRTETGTGTP-NH2), the values for the concentration giving a half-maximal response (EC50) in test [1] and in test [2] were 0.046 nM and 0.009 nM, respectively. Besides, the IC50 in test [3] turned out to be 20.2 nM.
Regarding `CC(C)C[C@H](NC(=O)[C@H](CCCNC(=N)N)NC(=O)CNC(=O)[C@H](CC(C)C)NC(=O)[C@@H](NC(=O)[C@H](C)NC(=O)[C@@H](NC(=O)[C@@H](NC(=O)[C@H](CC(C)C)NC(=O)[C@H](CCC(=O)O)NC(=O)[C@H](CO)NC(=O)[C@H](C)N)[C@@H](C)O)[C@@H](C)O)C(C)C)C(=O)N[C@@H](CCC(=O)O)C(=O)N[C@@H](C)C(=O)N[C@@H](CCC(=O)O)C(=O)N[C@@H](CC(C)C)C(=O)N[C@@H](Cc1c[nH]cn1)C(=O)N[C@@H](CCC(=O)O)C(=O)N[C@@H](CC(C)C)C(=O)N[C@H](C(=O)N[C@H](C(=O)N[C@@H](CC(C)C)C(=O)N1CCC[C@H]1C(=O)N[C@@H](CCCNC(=N)N)C(=O)N[C@H](C(=O)N[C@@H](CCC(=O)O)C(=O)N[C@H](C(=O)NCC(=O)N[C@H](C(=O)NCC(=O)N[C@H](C(=O)N1CCC[C@H]1C(N)=O)[C@@H](C)O)[C@@H](C)O)[C@@H](C)O)[C@@H](C)O)[C@@H](C)O)[C@@H](C)O` [106bb, H—ASELTTAVLGRLEAELHELTTLPRTETGTGTP—NH2] (H-ASELTTAVLGRLEAELHELTTLPRTETGTGTP-NH2), the IC50 in test [3] turned out to be 71.4 nM.
Take `CC(C)C[C@H](NC(=O)CNC(=O)[C@H](CO)NC(=O)[C@@H](N)CC(C)C)C(=O)N[C@@H](CO)C(=O)N[C@H](C(=O)N[C@@H](C)C(=O)N[C@H](C(=O)N[C@@H](CC(C)C)C(=O)NCC(=O)N[C@@H](CCCNC(=N)N)C(=O)N[C@@H](CC(C)C)C(=O)N[C@@H](CO)C(=O)N[C@@H](CCC(N)=O)C(=O)N[C@@H](CCC(=O)O)C(=O)N[C@@H](CC(C)C)C(=O)N[C@@H](Cc1c[nH]cn1)C(=O)N[C@@H](CCC(=O)O)C(=O)N[C@@H](CC(C)C)C(=O)N[C@@H](CCC(N)=O)C(=O)N[C@H](C(=O)N[C@@H](Cc1ccc(O)cc1)C(=O)N1CCC[C@H]1C(=O)N[C@@H](CCCNC(=N)N)C(=O)N[C@H](C(=O)N[C@@H](CCC(=O)O)C(=O)N[C@H](C(=O)NCC(=O)N[C@@H](CO)C(=O)N[C@@H](CCC(N)=O)C(=O)N[C@H](C(=O)N[C@@H](Cc1ccc(O)cc1)C(N)=O)[C@@H](C)O)[C@@H](C)O)[C@@H](C)O)[C@@H](C)O)C(C)C)[C@@H](C)O` [127bb, H—LSGLSTAVLGRLSQELHELQTYPRTETGSQTY—NH2] (H-LSGLSTAVLGRLSQELHELQTYPRTETGSQTY-NH2): the half-maximal effective concentration (EC50) in test [1] came out at 0.011 nM; in test [2], 0.006 nM. Besides, in test [3], the half-inhibitory concentration (IC50) came out at 1.18 nM.

Usually EC50 stands for the concentration at which the effect is half-maximal. Usually IC50 stands for the point on the concentration scale where inhibition reaches its midpoint.
